# According to patent publication US10285983B2, “3-(1H-pyrrolo[2,3-B]pyridin-2-yl)-1H-pyrazolo[3,4-B] pyridines and therapeutic uses thereof” (Samumed, LLC, priority 2015, dated 2019):
# How the values were obtained:
# [1] = system: primary human mesenchymal stem cells (hMSCs); experiment: Chondrogenesis induction in hMSCs (nodule count, Rhodamine B/Nile Red); format: cell-based; conditions: 144 h, 6 days; for EC50: concentration required to induce 50% levels of chondrogenesis vs TGF-β3, read-out: Conc (nM) of 50% TGF-β3 activity; for Emax: relative to TGF-β3 (10 ng/mL) positive control, read-out: Max. Activity as % TGF-β3 activity
# Experimental: Representative compounds were screened using primary human mesenchymal stem cells (hMSCs) to determine their ability to induce chondrogenesis (process by which cartilage is developed).
# Primary human mesenchymal stem cells (hMSCs) were purchased from Lonza (Walkersville, Md.) and expanded in Mesenchymal Stem Cell Growth Media (Lonza). Cells between passage 3 and 6 were used for the experiments.
# Each compound was dissolved in DMSO as a 10 mM stock and used to prepare compound source plates. Serial dilution (1:3, 6-point dose-response curves from 2700 nM to 10 nM) and compound transfer was performed using the ECHO 550 (Labcyte, Sunnyvale, Calif.) into 96-well clear bottom assay plates (Greiner Bio-One) with appropriate DMSO backfill for a final DMSO concentration of 0.03%. hMSCs were plated at 20,000 cells/well in 250 μL/well Incomplete Chondrogenic Induction Medium (Lonza; DMEM, dexamethasone, ascorbate, insulin-transferrin-selenium [ITS supplement], gentamycin-amphotericin [GA-1000], sodium pyruvate, proline and L-glutamine). TGF-β3 (10 ng/mL) was used as a positive control for differentiation while negative control wells were treated with 75 nL DMSO for normalization and calculating EC50 values. Cells were incubated at 37° C. and 5% CO2 for 6 days. To image chondrogenic nodules, the cells were fixed using 4% formaldehyde (Electron Microscopy Sciences), and stained with 2 μg/mL Rhodamine B (Sigma-Aldrich) and 20 μM Nile Red (Sigma-Aldrich) [Johnson K., et. al, A Stem Cell-Based Approach to Cartilage Repair, Science, (2012), 336(6082), 717-721]. The nodules imaged (4 images per well at 4× magnification) by excitation at 531 nm and emission at 625 nm and quantified using the CellInsight CX5 (Thermo Scientific). Number of nodules in each well was normalized to the average of 3 DMSO treated wells on the same plate using Excel (Microsoft Inc.). The normalized averages (fold change over DMSO) of 3 replicate wells for each compound concentration were calculated. Due to solubility limitations of some of the compounds, curve fitting was incomplete leading to inaccurate EC50 determinations.
# Using TGF-β3 as a positive control, the concentration of representative compounds required to induce 50% levels of chondrogenesis is reported. In addition, the maximum activity of each compound and the respective dose that each compound reached maximum chondrogenesis activity is reported.
# [2] = system: primary human fibroblasts derived from IPF patients (LL29 cells); experiment: Inhibition of fibrotic process, αSMA staining in TGF-β1 treated LL29 fibroblasts; format: cell-based; conditions: Fibroblast, 96 h, TGF-β1 20 ng/mL, 4 days; for EC50: % αSMA positive cells; for inhibition at 10 µM: given for EC50 >10 μM, read-out: percent inhibition at 10 μM
# Summary of the method: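 IPF-patient LL29 lung fibroblasts in 1% FBS medium received compound (11-point, 1:2 dilution, 0.1% DMSO) plus TGF-β1 20 ng/mL, 4 days at 37 °C. Percent αSMA-positive cells among SYTOX-negative cells quantified by immunofluorescence imaging, normalized to TGF-β1/DMSO wells. EC50 by non-linear regression on triplicates; above 10 μM, % inhibition at 10 μM given.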
EC50 [1],SMILES,Emax [1],EC50 [2],inhibition at 10 µM [2]
100 nM,"CN(C)Cc1cncc(-c2cnc3[nH]nc(-c4cc5c(-c6cccc(F)c6)ccnc5[nH]4)c3c2)c1 [Compound 13, 1-(5-(3-(4-(3-Fluorophenyl)-1H-pyrrolo[2,3-b]pyridin-2-yl)-1H-pyrazolo [3,4-b]pyridin-5-yl)pyridin-3-yl)-N,N-dimethylmethanamine]",102%,> 10 µM,5.2%
900 nM,"Cc1ccncc1-c1cnc2[nH]nc(-c3cc4c(-c5ccc(F)cc5)ccnc4[nH]3)c2c1 [Compound 33, 3-(4-(4-Fluorophenyl)-1H-pyrrolo[2,3-b]pyridin-2-yl)-5-(4-methylpyridin-3-yl)-1H-pyrazolo[3,4-b]pyridine]",108%,4.51 µM,–
–,"Fc1ccc(-c2ccnc3[nH]c(-c4n[nH]c5ncc(-c6cncc(CN7CCCC7)c6)cc45)cc23)cc1 [Compound 42, 3-(4-(4-Fluorophenyl)-1H-pyrrolo[2,3-b]pyridin-2-yl)-5-(5-(pyrrolidin-1-ylmethyl)pyridin-3-yl)-1H-pyrazolo[3,4-b]pyridine]",25%,4.98 µM,–
–,"Nc1cncc(-c2cnc3[nH]nc(-c4cc5c(-c6ccccc6F)ccnc5[nH]4)c3c2)c1 [Compound 59, 5-(3-(4-(2-Fluorophenyl)-1H-pyrrolo[2,3-b]pyridin-2-yl)-1H-pyrazolo[3,4-b]pyridin-5-yl)pyridin-3-amine]",28%,> 10 µM,0%
100 nM,"CCNCc1cncc(-c2cnc3[nH]nc(-c4cc5c(-c6ccccc6F)ccnc5[nH]4)c3c2)c1 [Compound 62, N-((5-(3-(4-(2-Fluorophenyl)-1H-pyrrolo[2,3-b]pyridin-2-yl)-1H-pyrazolo [3,4-b]pyridin-5-yl)pyridin-3-yl)methyl)ethanamine]",55%,> 10 µM,0%
–,"CN(C)c1cncc(-c2cnc3[nH]nc(-c4cc5c(-c6ccccc6F)ccnc5[nH]4)c3c2)c1 [Compound 63, 5-(3-(4-(2-Fluorophenyl)-1H-pyrrolo[2,3-b]pyridin-2-yl)-1H-pyrazolo[3,4-b]pyridin-5-yl)-N,N-dimethylpyridin-3-amine]",35%,> 10 µM,0%
10 nM,"CC(C)Nc1cncc(-c2cnc3[nH]nc(-c4cc5c(-c6ccccc6F)ccnc5[nH]4)c3c2)c1 [Compound 68, 5-(3-(4-(2-Fluorophenyl)-1H-pyrrolo[2,3-b]pyridin-2-yl)-1H-pyrazolo[3,4-b]pyridin-5-yl)-N-isopropylpyridin-3-amine]",82%,8.54 µM,–
30 nM,"CCCCC(=O)Nc1cncc(-c2cnc3[nH]nc(-c4cc5c(-c6ccccc6F)ccnc5[nH]4)c3c2)c1 [Compound 75, N-(5-(3-(4-(2-Fluorophenyl)-1H-pyrrolo[2,3-b]pyridin-2-yl)-1H-pyrazolo [3,4-b]pyridin-5-yl)pyridin-3-yl)pentanamide]",82%,> 10 µM,0%
–,"CC(C)CC(=O)Nc1cncc(-c2cnc3[nH]nc(-c4cc5c(-c6cccnc6)ccnc5[nH]4)c3c2)c1 [Compound 86, 3-Methyl-N-(5-(3-(4-(pyridin-3-yl)-1H-pyrrolo[2,3-b]pyridin-2-yl)-1H-pyrazolo[3,4-b]pyridin-5-yl)pyridin-3-yl)butanamide]",44%,> 10 µM,0%
10 nM,"CCNCc1cncc(-c2cnc3[nH]nc(-c4cc5c(-c6cccnc6)ccnc5[nH]4)c3c2)c1 [Compound 90, N-((5-(3-(4-(Pyridin-3-yl)-1H-pyrrolo[2,3-b]pyridin-2-yl)-1H-pyrazolo[3,4-b]pyridin-5-yl)pyridin-3-yl)methyl)ethanamine]",92%,> 10 µM,5.1%
–,"CN(C)Cc1cncc(-c2cnc3[nH]nc(-c4cc5c(-c6cccnc6)ccnc5[nH]4)c3c2)c1 [Compound 97, N,N-Dimethyl-1-(5-(3-(4-(pyridin-3-yl)-1H-pyrrolo[2,3-b]pyridin-2-yl)-1H-pyrazolo[3,4-b]pyridin-5-yl)pyridin-3-yl)methanamine]",49%,> 10 µM,0%
–,"c1cncc(-c2ccnc3[nH]c(-c4n[nH]c5ncc(-c6cncc(CN7CCCCC7)c6)cc45)cc23)c1 [Compound 99, 5-(5-(Piperidin-1-ylmethyl)pyridin-3-yl)-3-(4-(pyridin-3-yl)-1H-pyrrolo[2,3-b]pyridin-2-yl)-1H-pyrazolo[3,4-b]pyridine]",44%,> 10 µM,73.8%
–,"Nc1cncc(-c2cnc3[nH]nc(-c4cc5c(-c6ccncc6)ccnc5[nH]4)c3c2)c1 [Compound 115, 5-(3-(4-(Pyridin-4-yl)-1H-pyrrolo[2,3-b]pyridin-2-yl)-1H-pyrazolo[3,4-b]pyridin-5-yl)pyridin-3-amine]",12%,5.9 µM,–
300 nM,"CC(C)(C)CC(=O)Nc1cncc(-c2cnc3[nH]nc(-c4cc5c(-c6ccncc6)ccnc5[nH]4)c3c2)c1 [Compound 128, 3,3-Dimethyl-N-(5-(3-(4-(pyridin-4-yl)-1H-pyrrolo[2,3-b]pyridin-2-yl)-1H-pyrazolo[3,4-b]pyridin-5-yl)pyridin-3-yl)butanamide]",79%,> 10 µM,0%
30 nM,"CCCC(=O)Nc1cncc(-c2cnc3[nH]nc(-c4cc5c(-c6ccncc6)ccnc5[nH]4)c3c2)c1 [Compound 129, N-(5-(3-(4-(Pyridin-4-yl)-1H-pyrrolo[2,3-b]pyridin-2-yl)-1H-pyrazolo[3,4-b]pyridin-5-yl)pyridin-3-yl)butyramide]",50%,0.621 µM,–
2700 nM,"c1ccc(CNCc2cncc(-c3cnc4[nH]nc(-c5cc6c(-c7ccncc7)ccnc6[nH]5)c4c3)c2)cc1 [Compound 136, N-Benzyl-1-(5-(3-(4-(pyridin-4-yl)-1H-pyrrolo[2,3-b]pyridin-2-yl)-1H-pyrazolo[3,4-b]pyridin-5-yl)pyridin-3-yl)methanamine]",93%,3.04 µM,–
–,"Fc1cccc(-c2ccnc3[nH]c(-c4n[nH]c5ncc(-c6cncc(OCc7ccccc7)c6)cc45)cc23)c1 [Compound 518, 5-(5-(Benzyloxy)pyridin-3-yl)-3-(4-(3-fluorophenyl)-1H-pyrrolo[2,3-b]pyridin-2-yl)-1H-pyrazolo[3,4-b]pyridine]",–,> 10 µM,0%
–,"Oc1cncc(-c2cnc3[nH]nc(-c4cc5c(-c6ccc(F)cc6)ccnc5[nH]4)c3c2)c1 [Compound 533, 5-(3-(4-(4-Fluorophenyl)-1H-pyrrolo[2,3-b]pyridin-2-yl)-1H-pyrazolo[3,4-b]pyridin-5-yl)pyridin-3-ol]",–,6.76 µM,–
–,"CN(C)CCOc1cncc(-c2cnc3[nH]nc(-c4cc5c(-c6cccnc6)ccnc5[nH]4)c3c2)c1 [Compound 563, N,N-dimethyl-2-((5-(3-(4-(pyridin-3-yl)-1H-pyrrolo[2,3-b]pyridin-2-yl)-1H-pyrazolo[3,4-b]pyridin-5-yl)pyridin-3-yl)oxy)ethan-1-amine]",–,2.44 µM,–
–,"c1csc(-c2ccnc3[nH]c(-c4n[nH]c5ncc(-c6cncc(OC7CCCCC7)c6)cc45)cc23)c1 [Compound 703, 5-(5-(Cyclohexyloxy)pyridin-3-yl)-3-(4-(thiophen-2-yl)-1H-pyrrolo[2,3-b]pyridin-2-yl)-1H-pyrazolo[3,4-b]pyridine]",–,2.51 µM,–
–,"Cc1ncc(-c2cnc3[nH]nc(-c4cc5c(-c6cc(F)cc(NCCN(C)C)c6)ccnc5[nH]4)c3c2)n1C [Compound 781, N^1-(3-(2-(5-(1,2-Dimethyl-1H-imidazol-5-yl)-1H-pyrazolo[3,4-b]pyridin-3-yl)-1H-pyrrolo[2,3-b]pyridin-4-yl)-5-fluorophenyl)-N^2,N^2-dimethylethane-1,2-diamine]",–,0.938 µM,–
